Columns and labels:
Format in all cases: functional
[1] = Antioxidant activity assessed as inhibition of superoxide anion radical generation at 200 ug/ml by spectrophotometry
[2] = Antioxidant activity assessed as inhibition of hydroxyl radical generation at 200 ug/ml by spectrophotometry
[3] = organism: Rattus norvegicus; assay: Increase in lipoprotein lipase activity in Triton fed hyperlipidemic Charles Foster rat plasma assessed as free fatty acids formation rate per ml of plasma relative to untreated Triton control; set-up: concentration or dose not given beside the values
[4] = tested on: Rattus norvegicus; assay: Antidyslipidemic activity in Triton fed hyperlipidemic Charles Foster rat assessed as increase in post heparin lipoprotein lipase activity by measuring free fatty acids formation rate per ml of plasma at 100 mg/kg, po
[5] = tested on: Rattus norvegicus; assay: Antidyslipidemic activity in Triton fed hyperlipidemic Charles Foster rat assessed as reduction in plasma phospholipids at 100 mg/kg, po; set-up: scale not given: the % may be the effect or the level left
[6] = tested on: Rattus norvegicus; assay: Antidyslipidemic activity in Triton fed hyperlipidemic Charles Foster rat assessed as reduction in plasma triglyceride level at 100 mg/kg, po; set-up: scale not given: the % may be the effect or the level left
[7] = tested on: Rattus norvegicus; assay: Antidyslipidemic activity in Triton fed hyperlipidemic Charles Foster rat assessed as reduction in plasma total cholesterol at 100 mg/kg, po; set-up: scale not given: the % may be the effect or the level left
[8] = Antioxidant activity in microsomes assessed as inhibition of lipid peroxidation by measuring MDA level at 200 ug/ml by spectrophotometry based TBARS method

Oc1ncnc2[nH]ncc12 gave an inhibition [1] of 41%.

CCOC(=O)C(C)Oc1ccc(NC(=O)COc2ccccc2C(C)CC)cc1 (stereo not drawn) showed an inhibition [2] of 25%, an Activity [3] of 16% and an Activity [4] of 15%. The Activity [5] was 23%, the Activity [6] was 24% and the inhibition [1] was 25%. The Activity [7] was 24% and the inhibition [8] was 25%.

Cc1ccc(C)c(OCCCC(C)(C)C(=O)O)c1 [GEMFIBROZIL] showed an Activity [3] of 30%, an Activity [4] of 31% and an Activity [5] of 33%. It also gave an Activity [6] of 33% and an Activity [7] of 31%.

CCOC(=O)CCCOc1ccc(NC(=O)COc2ccc3ccccc3c2)cc1 gave an inhibition [2] of 25%, an Activity [4] of 17% and an Activity [5] of 19%. For the same compound, the Activity [6] was 22%, the inhibition [1] was 27% and the Activity [7] was 21%. The inhibition [8] was 29%.

With CCOC(=O)C(CC)Oc1ccc(NC(=O)CSc2ccc3ccccc3c2)cc1 (stereo not drawn) the Activity [4] was 7%, the Activity [5] was 4% and the Activity [6] was 5%. The Activity [7] was 6%.

CCOC(=O)CCCOc1ccc(NC(=O)COc2ccc(Cl)cc2Cl)cc1 gave an Activity [4] of 12%, an Activity [5] of 8% and an Activity [6] of 7%. It also gave an Activity [7] of 9%.

For CCOC(=O)C(C)Oc1ccc(NC(=O)COc2ccccc2Cl)cc1 (stereo not drawn), the inhibition [2] was 26%, the Activity [3] was 21% and the Activity [4] was 23%. It also gave an Activity [5] of 26%, an Activity [6] of 25% and an inhibition [1] of 33%. The Activity [7] was 25% and the inhibition [8] was 26%.

Compound Cc1c(C)c2c(c(C)c1O)CC[C@@](C)(CCC[C@H](C)CCC[C@H](C)CCCC(C)C)O2 has an inhibition [8] of 49%.

Work on CCOC(=O)C(C)Oc1ccc(NC(=O)COc2ccc(Cl)cc2Cl)cc1 (stereo not drawn) yielded an Activity [4] of 10%, an Activity [5] of 7% and an Activity [6] of 10%. The Activity [7] was 8%.

CCOC(=O)C(C)(C)Oc1ccc(NC(=O)COc2ccc(Cl)cc2Cl)cc1 showed an Activity [4] of 9%, an Activity [5] of 4% and an Activity [6] of 13%. It also gave an Activity [7] of 8%.

With CCOC(=O)COc1ccc(NC(=O)COc2ccc3ccccc3c2)cc1 the Activity [4] was 15%, the Activity [5] was 14% and the Activity [6] was 11%. It also gave an Activity [7] of 14%.

Work on CCOC(=O)C(C)(C)Oc1ccc(NC(=O)COc2ccccc2C(C)CC)cc1 (stereo not drawn) yielded an Activity [4] of 14%, an Activity [5] of 10% and an Activity [6] of 6%. For the same compound, the Activity [7] was 7%.

With CCOC(=O)CCCOc1ccc(NC(=O)COc2ccccc2C(C)CC)cc1 (stereo not drawn) the Activity [4] was 13%, the Activity [5] was 10% and the Activity [6] was 11%. The Activity [7] was 9%.

CCOC(=O)C(CC)Oc1ccc(NC(=O)COc2ccc(Cl)cc2Cl)cc1 (stereo not drawn) showed an Activity [4] of 4%, an Activity [5] of 3% and an Activity [6] of 5%. The Activity [7] was 2%.

CCOC(=O)C(C)Oc1ccc(NC(=O)CSc2ccc3ccccc3c2)cc1 (stereo not drawn) gave an inhibition [2] of 28%, an Activity [3] of 26% and an Activity [4] of 24%. The Activity [5] was 24%, the Activity [6] was 28% and the inhibition [1] was 31%. It also gave an Activity [7] of 26% and an inhibition [8] of 35%.

For CCOC(=O)COc1ccc(NC(=O)COc2ccccc2Cl)cc1, the Activity [4] was 9%, the Activity [5] was 9% and the Activity [6] was 6%. The Activity [7] was 6%.

Work on CCOC(=O)C(CC)Oc1ccc(NC(=O)COc2ccccc2C(C)CC)cc1 (stereo not drawn) yielded an Activity [4] of 5%, an Activity [5] of 9% and an Activity [6] of 9%. The Activity [7] was 10%.

CCOC(=O)C(C)(C)Oc1ccc(NC(=O)COc2ccc3ccccc3c2)cc1 gave an inhibition [2] of 22%, an Activity [3] of 22% and an Activity [4] of 23%. It also gave an Activity [5] of 24%, an Activity [6] of 27% and an inhibition [1] of 30%. For the same compound, the Activity [7] was 25% and the inhibition [8] was 22%.

Compound OC[C@@H](O)[C@@H](O)[C@H](O)[C@H](O)CO has an inhibition [2] of 41%.

With CCOC(=O)C(C)Oc1ccc(NC(=O)COc2ccc3ccccc3c2)cc1 (stereo not drawn) the inhibition [2] was 25%, the Activity [3] was 24% and the Activity [4] was 26%. The Activity [5] was 25%, the Activity [6] was 26% and the inhibition [1] was 25%. For the same compound, the Activity [7] was 23% and the inhibition [8] was 22%.

For CCOC(=O)CCCOc1ccc(NC(=O)COc2ccccc2Cl)cc1, the Activity [4] was 12%, the Activity [5] was 6% and the Activity [6] was 8%. For the same compound, the Activity [7] was 9%.

In the case of CCOC(=O)C(CC)Oc1ccc(NC(=O)COc2ccc3ccccc3c2)cc1 (stereo not drawn), the Activity [4] is reported as 12%, the Activity [5] is reported as 9% and the Activity [6] is reported as 13%. For the same compound, the Activity [7] was 12%.

Source: ChEMBL document CHEMBL2146358, “Discovery of amide based fibrates as possible antidyslipidemic and antioxidant agents” (2012)
